These results are taken from patent US20080108681A1 (Access Business Group International LLC, priority 2006, published 2008).

The subject of experiment [1] is pro-collagen synthesis in Hs27/HEK001 cells. The experiment is described as follows: Pro-Collagen Synthesis In Vitro Assay (Procollagen ELISA). Type of experiment: cell-based, human. As for the experimental part: Hs27/HEK001 cells are plated at 10,000/40,000 cells per well of 96-well plate. Hs27 cells are normal human fibroblasts derived from a foreskin source. […] cells are a human epidermal cell line that originally was derived from human scalp keratinocytes. […] Hs27/HEK001 cells are allowed to attach overnight. Following overnight incubation, media is removed from the wells and replaced with 100 μl fresh media.
After overnight incubation, the test samples are added to wells in triplicate to final concentrations of 1, 10, and 100 μg/ml. The cells with test sample added are incubated overnight and supernatants are collected for analysis using a Procollagen ELISA kit from Takara Bio, Inc. (Japan). The EC50 concentration for each test sample is monitored and recorded to evaluate variability over time.
Controls for this assay include administration of 0.1, 1, and 10 μg/ml ascorbic acid and all-trans-retinoic acid to H27/HEK cells. Untreated cells also are used as a negative control. It generally is known that ascorbic acid increases pro-collagen synthesis by approximately 15-20% compared to untreated control.
In general terms: An ELISA detects its analyte on a solid surface through an enzyme-linked reagent.

The subject of a further experiment is elastin. The experiment is described as follows: Elastin synthesis after allantoin administration. Type of experiment: cell-based.
Experiment [2] relates to glycosaminoglycan production. The experiment is described as follows: Synthesis of glycosaminoglycans after allantoin administration. It counts as cell-based.
Experiment [3] has as its system pro-collagen synthesis in Hs27/HEK001 cells. The note with it: generally known value for the control substance; cited from earlier work.

In the case of `NC(=O)NC1NC(=O)NC1=O` (centres unmarked) [Allantoin, 2,5-dioxy-4-imidazolidinyl urea], the “Pro-collagen synthesis, percent of untreated control” value in experiment [1] (allantoin at 100 μg/ml, average of triplicate wells) is on record as 124.1%. Besides, the “average increase in pro-collagen synthesis” value in experiment [1] (at 100 μg/ml) is listed as 24.1%. Moreover, the “dose dependence of pro-collagen synthesis” value in experiment [1] (final concentrations of 1, 10, and 100 μg/ml) was “dose-dependent increase in pro-collagen synthesis”. Besides, in the experiment on elastin (allantoin at 100 μg/ml), the “Elastin synthesis, percent of untreated control” value stood at 106.2%. In addition, in the experiment on elastin (at 100 μg/ml), the “average increase in elastin” value is listed as 6.2%. For the same compound, in experiment [2] (allantoin at 100 μg/ml), the “Glycosaminoglycan synthesis, percent of untreated control” value was 111.2%. In addition, in experiment [2] (at 100 μg/ml), the “average increase in glycosaminoglycan production” value was 11.2%.
In the case of `O=C1O[C@H]([C@@H](O)CO)C(O)=C1O` [ascorbic acid], the “increase in pro-collagen synthesis compared to untreated control” value in experiment [3] was 15-20%.
